≈ marks a conversion by molar mass, not a printed value.
How the values were obtained:
[1] = Stability assessment of Form B under stress conditions (XRPD after storage); format: physicochemical; details: 30 days; for Final form: dish open, XRPD
Description: Two samples of canagliflozin Form B were stored under 25° C./60% RH and 40° C./75% RH, respectively, with dish open for 30 days. The solid samples were analyzed by XRPD.

[2] = Kinetic solubility in FeSSIF and FaSSIF; format: physicochemical; details: for Solubility in comparison to the hemihydrate form (WO2008069327A1): FeSSIF and FaSSIF, 1 h, 4 h, 24 h; for Solubility in comparison to the hemihydrate form (WO2008069327A1) / solubility at 1 h / solubility at 4 h / solubility at 24 h: RT; for solubility at 1 h / solubility at 4 h / solubility at 24 h: thermodynamic from solid
Description: Kinetic solubility of canagliflozin in crystalline Form B and its hemihydrate form in fed state simulated intestinal fluid (FeSSIF) and fasted state simulated intestinal fluid (FaSSIF) were measured using the following procedures:
1. Weighed approximately 30 mg of compound into a tared 4 mL plastic vial and recorded the actual weight of the compound.
2. Added 3 mL of water or bio-relevant medium into each vial.
3. Covered the vials with caps and kept all the suspension samples stirring at RT using a rolling incubator with a speed of 25 r/min.
4. Sampled at 1 h, 4 h and 24 h respectively.
5. Centrifuged the filtration tubes in a speed of 8500 rpm for 3 minutes at RT, collected 0.2 mL supernatant for HPLC quantification determination and the rest of solution for pH measurement, and separated the solid for XRPD characterization.
Kinetic solubility of canagliflozin Form C and hemihydrate in fed state simulated intestinal fluid (FeSSIF) and fasted state simulated intestinal fluid (FaSSIF) were measured using the following procedures:
5. Centrifuged filtration tubes in a speed of 8500 rpm for 3 minutes at RT, collected 0.2 mL supernatant for HPLC quantification determination and the rest of solution for pH measurement, and separated the solid for XRPD characterization.

Stability under the stress conditions ([1]; 25° C./60% RH and 40° C./75% RH) | Final form ([1]; stored under 25° C./60% RH) | Final form ([1]; stored under 40° C./75% RH) | Solubility in comparison to the hemihydrate form (WO2008069327A1) [2] | solubility at 1 h ([2]; fasted state simulated intestinal fluid (FaSSIF), fassif, time point 1 h) [µg/mL] | solubility at 4 h ([2]; fasted state simulated intestinal fluid (FaSSIF), fassif, time point 4 h) [µg/mL] | solubility at 24 h ([2]; fasted state simulated intestinal fluid (FaSSIF), fassif, time point 24 h) [µg/mL] | solubility at 1 h ([2]; fed state simulated intestinal fluid (FeSSIF), fessif, time point 1 h) [µg/mL] | solubility at 4 h ([2]; fed state simulated intestinal fluid (FeSSIF), fessif, time point 4 h) [µg/mL] | solubility at 24 h ([2]; fed state simulated intestinal fluid (FeSSIF), fessif, time point 24 h) [µg/mL] | Solubility at RT ([2]; FaSSIF, time point 1 h) [µg/mL] | Solubility at RT ([2]; FaSSIF, time point 4 h) [µg/mL] | Solubility at RT ([2]; FaSSIF, time point 24 h) [µg/mL] | Solubility at RT ([2]; FeSSIF, time point 1 h) [µg/mL] | Solubility at RT ([2]; FeSSIF, time point 4 h) [µg/mL] | Solubility at RT ([2]; FeSSIF, time point 24 h) [µg/mL] | SMILES
stable | Form B | Form B | higher solubility | 500 (≈ 1.12 mM) | 510 (≈ 1.15 mM) | 480 (≈ 1.08 mM) | 4720 (≈ 10.6 mM) | 4760 (≈ 10.7 mM) | 4350 (≈ 9.79 mM) |  |  |  |  |  |  | Cc1ccc([C@@H]2O[C@H](CO)[C@@H](O)[C@H](O)[C@H]2O)cc1Cc1ccc(-c2ccc(F)cc2)s1 [Form B, (2S,3R,4R,5S,6R)-2-{3-[5-[4-fluoro-phenyl)-thiophen-2-ylmethyl]-4-methyl-phenyl -}-6-hydroxymethyl-tetrahydro-pyran-3,4,5-triol]
 |  |  | higher solubility |  |  |  |  |  |  | 410 (≈ 0.922 mM) | 440 (≈ 0.99 mM) | 420 (≈ 0.945 mM) | 4600 (≈ 10.3 mM) | 4700 (≈ 10.6 mM) | 4500 (≈ 10.1 mM) | Cc1ccc([C@@H]2O[C@H](CO)[C@@H](O)[C@H](O)[C@H]2O)cc1Cc1ccc(-c2ccc(F)cc2)s1 [Form C, (2S,3R,4R,5S,6R)-2-{3-[5-[4-fluoro-phenyl)-thiophen-2-ylmethyl]-4-methyl-phenyl -}-6-hydroxymethyl-tetrahydro-pyran-3,4,5-triol]
 |  |  |  |  |  |  |  |  |  | 360 | 370 | 370 | 3340 | 3500 | 3700 | Cc1ccc([C@@H]2O[C@H](CO)[C@@H](O)[C@H](O)[C@H]2O)cc1Cc1ccc(-c2ccc(F)cc2)s1 [WO2008069327A1 hemihydrate, (2S,3R,4R,5S,6R)-2-{3-[5-[4-fluoro-phenyl)-thiophen-2-ylmethyl]-4-methyl-phenyl -}-6-hydroxymethyl-tetrahydro-pyran-3,4,5-triol, reference compound]
